Laboratory results reported in PubChem BioAssay (NCI).
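Each compound was tested at five concentrations against cells in 96-well plates for 48 hours. GI50 = concentration required for 50% inhibition of growth. TGI marks complete inhibition of growth.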

Assays:
Experiment in all cases: NCI anticancer screen, dose series, 48 h; in the data active = GI50 below about 0.43 µM; inactive = the rest
HCT-116 colon = tested on: HCT-116 colon
K-562 leukemia = tested on: K-562 leukemia
U251 CNS = tested on: U251 CNS
MOLT-4 leukemia = tested on: MOLT-4 leukemia
UACC-62 melanoma = tested on: UACC-62 melanoma
SK-MEL-2 melanoma = tested on: SK-MEL-2 melanoma
A498 renal = tested on: A498 renal
LOX IMVI melanoma = tested on: LOX IMVI melanoma
NCI-H460 lung = tested on: NCI-H460 lung
SNB-19 CNS = tested on: SNB-19 CNS
HCC-2998 colon = tested on: HCC-2998 colon
RPMI-8226 leukemia = tested on: RPMI-8226 leukemia
NCI-H226 lung = tested on: NCI-H226 lung
SK-MEL-28 melanoma = tested on: SK-MEL-28 melanoma
MDA-MB-231 breast = tested on: MDA-MB-231 breast
UO-31 renal = tested on: UO-31 renal
MDA-MB-435 = tested on: MDA-MB-435
OVCAR-3 ovarian = tested on: OVCAR-3 ovarian
DU-145 prostate = tested on: DU-145 prostate
NCI-H23 lung = tested on: NCI-H23 lung
SR leukemia = tested on: SR leukemia
SF-539 CNS = tested on: SF-539 CNS
SNB-75 CNS = tested on: SNB-75 CNS
IGROV1 ovarian = tested on: IGROV1 ovarian
SK-OV-3 ovarian = tested on: SK-OV-3 ovarian
SK-MEL-5 melanoma = tested on: SK-MEL-5 melanoma
ACHN renal = tested on: ACHN renal
786-0 renal = tested on: 786-0 renal
OVCAR-4 ovarian = tested on: OVCAR-4 ovarian
UACC-257 melanoma = tested on: UACC-257 melanoma
HOP-62 NSCLC = tested on: HOP-62 NSCLC
SN12C renal = tested on: SN12C renal
OVCAR-8 ovarian = tested on: OVCAR-8 ovarian
BT-549 breast = tested on: BT-549 breast
RXF 393 renal = tested on: RXF 393 renal
NCI/ADR-RES ovarian = tested on: NCI/ADR-RES ovarian
HT29 colon = tested on: HT29 colon
KM12 colon = tested on: KM12 colon
CAKI-1 renal = tested on: CAKI-1 renal
A549 NSCLC = tested on: A549 NSCLC
PC-3 prostate = tested on: PC-3 prostate
M14 melanoma = tested on: M14 melanoma
HCT-15 colon = tested on: HCT-15 colon
HOP-92 NSCLC = tested on: HOP-92 NSCLC
SW-620 colon = tested on: SW-620 colon
COLO 205 colon = tested on: COLO 205 colon
EKVX NSCLC = tested on: EKVX NSCLC
HL-60(TB) leukemia = tested on: HL-60(TB) leukemia
MCF7 breast = tested on: MCF7 breast
OVCAR-5 ovarian = tested on: OVCAR-5 ovarian
SF-295 CNS = tested on: SF-295 CNS
TK-10 renal = tested on: TK-10 renal
NCI-H522 lung = tested on: NCI-H522 lung
SF-268 CNS = tested on: SF-268 CNS
CCRF-CEM leukemia = tested on: CCRF-CEM leukemia
HS 578T breast = tested on: HS 578T breast

Cc1ccc(C2CC3(c4ccccc4)ON=C(c4ccccc4)N3c3ccccc3S2)cc1 (centres undefined)
inactive: GI50 (HCT-116 colon) 8.08 µM | GI50 (K-562 leukemia) 38.5 µM | GI50 (U251 CNS) 20.6 µM | GI50 (MOLT-4 leukemia) 38.9 µM

O=S(=O)(c1ccccc1)N1CN2CN(C1)CN(S(=O)(=O)c1ccccc1)C2
> 100 µM: TGI (UACC-62 melanoma) | TGI (SK-MEL-2 melanoma) | TGI (A498 renal) | TGI (LOX IMVI melanoma) | TGI (NCI-H460 lung) | TGI (SNB-19 CNS) | TGI (HCC-2998 colon) | TGI (RPMI-8226 leukemia) | TGI (NCI-H226 lung) | TGI (SK-MEL-28 melanoma) | TGI (MDA-MB-231 breast) | TGI (UO-31 renal) | TGI (MDA-MB-435) | TGI (HCT-116 colon) | TGI (OVCAR-3 ovarian) | TGI (DU-145 prostate) | TGI (NCI-H23 lung) | TGI (SR leukemia) | TGI (SF-539 CNS) | TGI (IGROV1 ovarian) | TGI (SK-OV-3 ovarian) | TGI (SK-MEL-5 melanoma) | TGI (ACHN renal) | TGI (K-562 leukemia) | TGI (786-0 renal) | TGI (OVCAR-4 ovarian) | TGI (UACC-257 melanoma) | TGI (U251 CNS) | TGI (HOP-62 NSCLC) | TGI (SN12C renal) | TGI (OVCAR-8 ovarian) | TGI (BT-549 breast) | TGI (RXF 393 renal) | TGI (NCI/ADR-RES ovarian) | TGI (HT29 colon) | TGI (KM12 colon) | TGI (CAKI-1 renal) | TGI (A549 NSCLC) | TGI (PC-3 prostate) | TGI (M14 melanoma) | TGI (HCT-15 colon) | TGI (HOP-92 NSCLC) | TGI (SW-620 colon) | TGI (COLO 205 colon) | TGI (EKVX NSCLC) | TGI (HL-60(TB) leukemia) | TGI (MCF7 breast) | TGI (OVCAR-5 ovarian) | TGI (SF-295 CNS) | TGI (TK-10 renal)
66.1 µM: TGI (SNB-75 CNS)

CC[C@]1(O)CC2CN(CCc3c([nH]c4ccccc34)[C@@](C(=O)OC)(c3cc4c(cc3OC)N(C=O)[C@H]3[C@@](O)(C(=O)OC)[C@H](OC(C)=O)[C@]5(CC)C=CCN6CC[C@]43[C@@H]65)C2)C1 (some centres undefined)
0.0319 µM: TGI (NCI-H226 lung)
> 13.3 µM: TGI (NCI/ADR-RES ovarian)
9.86 µM: TGI (TK-10 renal)
inactive: GI50 (UO-31 renal) 0.519 µM | GI50 (NCI/ADR-RES ovarian) 0.698 µM | GI50 (EKVX NSCLC) > 30.8 µM
> 22.5 µM: TGI (786-0 renal)
0.0195 µM: TGI (HT29 colon)
0.0185 µM: TGI (SK-OV-3 ovarian)
< 0.005 µM: TGI (MDA-MB-435) | TGI (NCI-H522 lung) | TGI (COLO 205 colon)
> 17.9 µM: TGI (SF-539 CNS)
4.16 µM: TGI (SK-MEL-2 melanoma)
active: GI50 (UACC-62 melanoma) < 0.005 µM | GI50 (SK-MEL-2 melanoma) < 0.005 µM | GI50 (A498 renal) 0.0123 µM | GI50 (LOX IMVI melanoma) 0.00808 µM | GI50 (NCI-H460 lung) < 0.005 µM | GI50 (SNB-19 CNS) < 0.005 µM | GI50 (HCC-2998 colon) < 0.005 µM | GI50 (RPMI-8226 leukemia) < 0.005 µM | GI50 (NCI-H226 lung) < 0.005 µM | GI50 (SK-MEL-28 melanoma) < 0.005 µM | GI50 (MDA-MB-231 breast) < 0.005 µM | GI50 (MDA-MB-435) < 0.005 µM | GI50 (HCT-116 colon) < 0.005 µM | GI50 (OVCAR-3 ovarian) < 0.005 µM | GI50 (DU-145 prostate) < 0.005 µM | GI50 (NCI-H522 lung) < 0.005 µM | GI50 (NCI-H23 lung) < 0.005 µM | GI50 (SR leukemia) < 0.005 µM | GI50 (SF-539 CNS) < 0.005 µM | GI50 (SF-268 CNS) < 0.005 µM | GI50 (IGROV1 ovarian) 0.0334 µM | GI50 (SK-OV-3 ovarian) < 0.005 µM | GI50 (SK-MEL-5 melanoma) < 0.005 µM | GI50 (ACHN renal) 0.235 µM | GI50 (K-562 leukemia) < 0.005 µM | GI50 (786-0 renal) 0.014 µM | GI50 (OVCAR-4 ovarian) 0.00653 µM | GI50 (UACC-257 melanoma) < 0.005 µM | GI50 (CCRF-CEM leukemia) < 0.005 µM | GI50 (U251 CNS) < 0.005 µM | GI50 (HOP-62 NSCLC) 0.0054 µM | GI50 (SN12C renal) < 0.005 µM | GI50 (OVCAR-8 ovarian) 0.00828 µM | GI50 (BT-549 breast) 0.00665 µM | GI50 (RXF 393 renal) < 0.005 µM | GI50 (HT29 colon) < 0.005 µM | GI50 (KM12 colon) < 0.005 µM | GI50 (CAKI-1 renal) 0.232 µM | GI50 (A549 NSCLC) 0.0172 µM | GI50 (PC-3 prostate) 0.0059 µM | GI50 (M14 melanoma) 0.00632 µM | GI50 (HS 578T breast) 0.0486 µM | GI50 (SW-620 colon) < 0.005 µM | GI50 (COLO 205 colon) < 0.005 µM | GI50 (MOLT-4 leukemia) < 0.005 µM | GI50 (MCF7 breast) < 0.005 µM | GI50 (OVCAR-5 ovarian) 0.0253 µM | GI50 (SF-295 CNS) < 0.005 µM | GI50 (TK-10 renal) 0.0192 µM
> 46.1 µM: TGI (HS 578T breast)
> 50 µM: TGI (UACC-62 melanoma) | TGI (LOX IMVI melanoma) | TGI (NCI-H460 lung) | TGI (SNB-19 CNS) | TGI (SK-MEL-28 melanoma) | TGI (UO-31 renal) | TGI (HCT-116 colon) | TGI (NCI-H23 lung) | TGI (SR leukemia) | TGI (SF-268 CNS) | TGI (IGROV1 ovarian) | TGI (ACHN renal) | TGI (K-562 leukemia) | TGI (OVCAR-4 ovarian) | TGI (SN12C renal) | TGI (OVCAR-8 ovarian) | TGI (RXF 393 renal) | TGI (KM12 colon) | TGI (CAKI-1 renal) | TGI (A549 NSCLC) | TGI (PC-3 prostate) | TGI (HCT-15 colon) | TGI (HOP-92 NSCLC) | TGI (SW-620 colon) | TGI (EKVX NSCLC) | TGI (MCF7 breast) | TGI (OVCAR-5 ovarian)
17.8 µM: TGI (RPMI-8226 leukemia)
0.679 µM: TGI (M14 melanoma)
> 44.2 µM: TGI (HOP-62 NSCLC)
0.149 µM: TGI (BT-549 breast)
0.059 µM: TGI (SK-MEL-5 melanoma)
1.35 µM: TGI (SF-295 CNS)
> 38.4 µM: TGI (UACC-257 melanoma)
2.73 µM: TGI (MDA-MB-231 breast)
